According to patent US6608058B2, “6-methylnicotinamide derivatives as antiviral agents” (Dong Wha Pharm. Ind. Co., Ltd., priority 2000, dated 2003):

Columns and labels:
[1] = test system: HBV polymerase; test: Inhibitory effect on the in vitro activities of HBV polymerase in reverse transcription (ELISA-type); type: biochemical
Text: The present inventors submitted application for a patent concerning HBV polymerase genetically expressed in and separated from E. coli, the process of its preparation, and the method to measure the enzyme activities (KR 94-3918, KR 96-33998). In the present experiments HBV polymerase was used which had been expressed in E. coli as stated above.
The method used in the present invention to measure in vitro reverse transcribing activities of HBV polymerase is as follows. Basic principles are the same as those for ELISA, nucleotides with biotin- or digoxigenin- group are included as substrates and anti-DIG antibodies attached to peroxidase enzyme recognize the polymerized substrates.
To the wells coated with streptavidin, 20 μl of HBV polymerase, 20 μl of reaction mixture (10 μM each of DIG-UTP and Biotin-UTP, 46 mM Tris-HCl, 266 mM KCl, 27.5 mM MgCl2, 9.2 mM DTT substrate/primer hybrid), and 20 μl of test compound (added to […]) were added and allowed to react at 22° C. for 15 hrs. During this reaction, HBV polymerase catalyzes DNA synthesis, and digoxigenin and biotin attached to nucleotides form bonds to streptavidin coated on the bottom of wells. When the reaction was done, each well was washed with 250 μl of cleaning buffer (pH 7.0) for 30 seconds, which was repeated five times to remove remaining impurities. 200 μl of anti-DIG-POD antibody was added to each well and allowed to react for 1 hr at 37° C., and the wells were washed with cleaning buffer to remove impurities. 200 μl each of ABTS™, a substrate of peroxidase, was then added and allowed to react at room temperature for 30 min. Absorbancy was measured at 405 nm using ELISA reader.
The inhibitory effects in HBV polymerase activities for reverse transcription were calculated using the group without test compound as a control and the results are shown in Table 1 as follows.

[2] = target: T1, HIV reverse transcriptase (Human immunodeficiency virus type 1 group M subtype B, UniProt P04585); test: Inhibitory effect on the in vitro HIV reverse transcriptase activity (non-radioactive RT assay kit); type: biochemical; settings: for inhibition at 0.1 µg/mL: 0.1 μg/ml; for inhibition at 1 µg/mL: 1 μg/ml
T1 construct: purchased Boehringer Mannheim
Method: Non-radioactive reverse transcriptase assay kit (Boehringer Mannheim) was used in the measurement of in vitro transcriptase activities. 20 μl (40 ng) of HIV reverse transcriptase and 20 μl of reaction mixture containing matrix-primer hybrid poly(A)oligo(dT)15, DIG(digoxigenin)-dUTP, biotin-dUTP, dTTP were added to wells coated with streptavidin, and the test compounds prepared were also added at the final concentrations of 0.1 and 1 μ/ml and allowed to react at 37° C. for 1 hr. At this time, DNA is formed from RNA by the action of HIV reverse transcriptase, forming bonds with streptavidin coated on the bottom of wells through digoxigenin and biotin moieties attached to nucleotides.
When the reaction was completed, each well was washed with 250 μl of washing buffer (pH 7.0) for 30 sec. five times to remove remaining impurities. 200 μl of anti-DIG-POD […] was added to each well, then the mixture was allowed to react at 37° C. for 1 hr and washed as above to remove impurities. 200 μl of ABTS™, a substrate for peroxidase, was added to each well and the mixture was allowed to react at room temperature for 30 min. Absorbance at 405 nm was measured for each solution using ELISA reader to determine the inhibitory effect on the HIV reverse transcriptase activities. The percentage of inhibition in the activity of HIV reverse transcriptase was calculated using the group without test compound as control and the results are represented in Table 3.

Compound | Inhibitory activity on HBV-RT (%) ([1]; 0.01 μg/ml) | Inhibitory activity on HBV-RT (%) ([1]; 0.1 μg/ml) | Inhibitory activity on HBV-RT (%) ([1]; 1 μg/ml) | inhibition at 0.1 µg/mL [2] [%] | inhibition at 1 µg/mL [2] [%]
Cc1ccc(C(=O)Nc2cccnc2)c(Nc2ccc3[nH]ncc3c2)n1 [Example 4, 2-(1H-5-indazolylamino)-6-methyl-N-(3-pyridyl)nicotinamide] | 50 | 64 | 92 | 40 | 64
Cc1ccc(C(=O)NCCCn2ccnc2)c(Nc2ccc3cn[nH]c3c2)n1 [Example 20, N-[3-(1H-1-imidazolyl)propyl]-2-(1H-6-indazolylamino)-6-methylnicotinamide] | 47 | 59 | 88 | 47 | 88
Cc1ccc(C(=O)N(N)c2ccccn2)c(Nc2ccc3cn[nH]c3c2)n1 [Example 21, 2-(1H-6-indazolylamino)-6-methyl-N-(2-pyridyl)-3-pyridinecarbohydrazide] | 30 | 50 | 86 | 49 | 75
Cc1ccc(C(=O)N(N)C(=O)c2cccnc2)c(Nc2ccc3cn[nH]c3c2)n1 [Example 22, 2-(1H-6-indazolylamino)-6-methyl-N-(3-pyridylcarbonyl)-3-pyridinecarbohydrazide] | 26 | 54 | 85 | – | –
Cc1ccc(C(=O)NCCc2ccccn2)c(Nc2ccc3[nH]ncc3c2)n1 [Example 6, 2-(1H-5-indazolylamino)-6-methyl-N-(2-pyridylethyl)nicotinamide] | 40 | 55 | 84 | 45 | 77
CNC(=O)c1ccc(C)nc1Nc1ccc2cn[nH]c2c1 [Example 7, 2-(1H-6-indazolylamino)-6-methyl-N-methylnicotinamide] | 21 | 50 | 70 | – | –
Cc1ccc(C(=O)N2CCOCC2)c(Nc2ccc3cn[nH]c3c2)n1 [Example 23, 2-(1H-6-indazolylamino)-6-methyl-3-(4-morpholinylcarbonyl)pyridine] | 12 | 40 | 62 | – | –
Cc1ccc(C(=O)NC(C)C)c(Nc2ccc3cn[nH]c3c2)n1 [Example 8, 2-(1H-6-indazolylamino)-N-isopropyl-6-methylnicotinamide] | 23 | 54 | 78 | 28 | 65
Cc1ccc(C(=O)NN2CCOCC2)c(Nc2ccc3[nH]ncc3c2)n1 [Example 2, 2-(1H-5-indazolylamino)-6-methyl-N-(4-morpholinyl)nicotinamide] | 42 | 57 | 88 | 49 | 84
CCN(CC)CCNC(=O)c1ccc(C)nc1Nc1ccc2cn[nH]c2c1 [Example 13, N-[2-(diethylamino)ethyl]-2-(1H-6-indazolylamino)-6-methylnicotinamide] | 15 | 45 | 54 | – | –
Cc1ccc(C(=O)NN2CCOCC2)c(Nc2ccc3cn[nH]c3c2)n1 [Example 16, 2-(1H-6-indazolylamino)-6-methyl-N-(4-morpholinyl)nicotinamide] | 35 | 51 | 78 | – | –
Cc1ccc(C(=O)NCCO)c(Nc2ccc3cn[nH]c3c2)n1 [Example 10, N-(2-hydroxyethyl)-2-(1H-6-indazolylamino)-6-methylnicotinamide] | 48 | 62 | 89 | – | –
Cc1ccc(C(=O)NCCN2CCCCC2)c(Nc2ccc3cn[nH]c3c2)n1 [Example 15, 2-(1H-6-indazolylamino)-6-methyl-N-[2-(1-piperidinyl)ethyl]nicotinamide] | 12 | 57 | 87 | 43 | 78
Cc1ccc(C(=O)NC(C)C)c(Nc2ccc3[nH]ncc3c2)n1 [Example 1, 2-(1H-5-indazolylamino)-N-isopropyl-6-methylnicotinamide] | 30 | 49 | 78 | 42 | 75
Cc1ccc(C(=O)NCCN(C)C)c(Nc2ccc3cn[nH]c3c2)n1 [Example 12, N-[2-(dimethylamino)ethyl]-2-(1H-6-indazolylamino)-6-methylnicotinamide] | 49 | 60 | 86 | – | –
Cc1ccc(C(=O)NN2CCN(C)CC2)c(Nc2ccc3cn[nH]c3c2)n1 [Example 17, 2-(1H-6-indazolylamino)-6-methyl-N-(4-methyl-1-piperazinyl)nicotinamide] | 24 | 56 | 86 | 50 | 84
Cc1ccc(C(=O)NCCN2CCOCC2)c(Nc2ccc3cn[nH]c3c2)n1 [Example 14, 2-(1H-6-indazolylamino)-6-methyl-N-[2-(4-morpholinyl)ethyl]nicotinamide] | 52 | 68 | 91 | 41 | 70
Cc1ccc(C(=O)NC(C)(C)C)c(Nc2ccc3cn[nH]c3c2)n1 [Example 9, N-(t-butyl)-2-(1H-6-indazolylamino)-6-methylnicotinamide] | 20 | 48 | 65 | – | –
Cc1ccc(C(=O)NC2CC2)c(Nc2ccc3cn[nH]c3c2)n1 [Example 11, N-cyclopropyl-2-(1H-6-indazolylamino)-6-methylnicotinamide] | 32 | 54 | 84 | 45 | 82
Cc1ccc(C(=O)NCc2cccnc2)c(Nc2ccc3[nH]ncc3c2)n1 [Example 5, 2-(1H-5-indazolylamino)-6-methyl-N-(3-pyridylmethyl)nicotinamide] | 37 | 43 | 65 | 38 | 69
Cc1ccc(C(=O)NCc2cccnc2)c(Nc2ccc3cn[nH]c3c2)n1 [Example 19, 2-(1H-6-indazolylamino)-6-methyl-N-(3-pyridylmethyl)nicotinamide] | 32 | 48 | 76 | – | –
Cc1ccc(C(=O)N[C@H]2CC[C@H](O)CC2)c(Nc2ccc3[nH]ncc3c2)n1 [Example 3, N-(Trans-4-hydroxy-1-cyclohexyl)-2-(1H-5-indazolylamino)-6-methylnicotinamide] | 53 | 61 | 80 | 51 | 80
Cc1ccc(C(=O)Nc2cccnc2)c(Nc2ccc3cn[nH]c3c2)n1 [Example 18, 2-(1H-6-indazolylamino)-6-methyl-N-(3-pyridyl)nicotinamide] | 18 | 40 | 69 | – | –
